Reference: patent US12692230B2, “(1 h-indol-5-yl)acrylamide derivatives as inhibitors of TEAD proteins and the hippo-YAP1/TAZ signaling cascade for the treatment of cancer” (Sanofi, priority 2020, dated 2026)
pIC50: −log10 of the molar value.

Test system: TEAD responsive promoter element (8XGTIIC-Luciferase; YAP1-TEAD and TAZ-TEAD activity)
Test: TEAD-Luciferase reporter assay
Assay type: cell-based
Conditions: Homo sapiens; luciferase activity in tumor cell lines with stable integration of the 8XGTIIC-Luciferase construct; 10 doses between 1 and 10000 nM, 48 hrs
Text: TEAD-Luciferase Reporter Assay
Luciferase-based gene reporter assays were used, employing the TEAD responsive promoter element that are stably integrated to different human tumor cell lines in order to monitor YAP1-TEAD and TAZ-TEAD activity and to study YAP1/TAZ-TEAD activity modulation by small molecule compounds. Luciferase-based gene reporter assays employing the GAPDH promoter element and stably integrated to different human tumor cell lines are used as counter screen control cell lines.
Tumor cell lines with stable integration of the 8XGTIIC-Luciferase construct (Dupont et al., Nature 2011) or the GAPDH-Luciferase control plasmid, are seeded in culture medium in 96-well plates at a density of 8000 cells/well. Following an overnight incubation in a 37° C., 5% CO2 growth chamber, cells are treated with compounds described above at 10 doses ranging between 1 and 10000 nM for 48 hrs. After compound incubation, cells are lysed with Bright-Glo Luciferase Assay System (Promega E2620) and luciferase activity is measured using a luminescent plate reader.
The inhibitory activity of the compounds with respect to luciferase activity is given by the concentration which inhibits 50% of activity of non-treated cells. IC50s are determined with a nonlinear regression model on XLfit software analysis (IDBS, UK).

Structure (SMILES) | pIC50
C=CC(=O)Nc1ccc2ccn(Cc3cccc(C(F)(F)F)c3)c2c1 [Example 21, N-(1-(3-(trifluoromethyl)benzyl)-1H-indol-6-yl)acrylamide] | 7.46
C=CC(=O)Nc1ccc2c(ccn2-c2cccnc2)c1 [Example 47, N-(1-(pyridin-3-yl)-1H-indol-5-yl)acrylamide] | < 5.00
C=CC(=O)Nc1ccc2c(c1)c(C)c(C)n2Cc1cccc(C(F)(F)F)c1 [Example 16, N-(2,3-dimethyl-1-(3-(trifluoromethyl)benzyl)-1H-indol-5-yl)acrylamide] | 7.51
C=CC(=O)Nc1ccc2c(ccn2-c2cccc(C(F)(F)F)c2)c1 [Example 43, N-(1-(3-(trifluoromethyl)phenyl)-1H-indol-5-yl)acrylamide] | 7.44
C=CC(=O)N(C)c1ccc2c(ccn2-c2ccc(C(F)(F)F)cc2)c1 [Example 74, N-methyl-N-(1-(4-(trifluoromethyl)phenyl)-1H-indol-5-yl)acrylamide] | 6.97
C=CC(=O)Nc1ccc2c(c1)cc(C)n2Cc1cccc(C(F)(F)F)c1 [Example 13, N-(2-methyl-1-(3-(trifluoromethyl)benzyl)-1H-indol-5-yl)acrylamide] | 7.20
C=CC(=O)Nc1ccc2c(ccn2Cc2cccc(I)c2)c1 [Example 9, N-(1-(3-iodobenzyl)-1H-indol-5-yl)acrylamide] | 6.84
C=CC(=O)Nc1ccc2c(ccn2Cc2ccc(-c3cccc(C(F)(F)F)c3)cc2)c1 [Example 31, N-(1-((3′-(trifluoromethyl)-[1,1′-biphenyl]-4-yl)methyl)-1H-indol-5-yl)acrylamide] | 7.70
C=CC(=O)Nc1ccc2c(ccn2Cc2cccc(C3CC3)c2)c1 [Example 15, N-(1-(3-cyclopropylbenzyl)-1H-indol-5-yl)acrylamide] | 6.30
C=CC(=O)Nc1ccc2c(ccn2-c2ccc(C#N)cc2)c1 [Example 51, N-(1-(4-cyanophenyl)-1H-indol-5-yl)acrylamide] | 6.50
C=CC(=O)Nc1ccc2c(c1)c(C)cn2-c1ccc(C(F)(F)F)cc1 [Example 69, N-(3-methyl-1-(4-(trifluoromethyl)phenyl)-1H-indol-5-yl)acrylamide] | 8.05
C=CC(=O)Nc1ccc2c(ccn2Cc2ccccc2)c1 [Example 18, N-(1-Benzyl-1H-indol-5-yl)-acrylamide] | 6.02
C=CC(=O)Nc1ccc2c(ccn2-c2cncc(F)c2)c1 [Example 67, N-(1-(5-fluoropyridin-3-yl)-1H-indol-5-yl)acrylamide] | 5.07
C=CC(=O)Nc1ccc2c(ccn2Cc2cscn2)c1 [Example 56, N-(1-(thiazol-4-ylmethyl)-1H-indol-5-yl)acrylamide] | ≤ 5.00
C=CC(=O)N(C)c1ccc2c(ccn2Cc2cccc(C(F)(F)F)c2)c1 [Example 2, N-methyl-N-(1-(3-(trifluoromethyl)benzyl)-1H-indol-5-yl)acrylamide] | 5.96
C=CC(=O)Nc1ccc2c(c1)c(C(N)=O)cn2Cc1cccc(C(F)(F)F)c1 [Example 83, 5-Acrylamido-1-(3-(trifluoromethyl)benzyl)-1H-indole-3-carboxamide] | 5.75
C=CC(=O)Nc1ccc2c(ccn2[C@H]2CC[C@@H](C(F)(F)F)CC2)c1 [Example 34, Cis-N-[1-[4-(trifluoromethyl)cyclohexyl]indol-5-yl]acrylamide] | ≤ 5.00
C=CC(=O)Nc1ccc2c(ccn2Cc2ccc(C(F)(F)F)o2)c1 [Example 55, N-(1-((5-(trifluoromethyl)furan-2-yl)methyl)-1H-indol-5-yl)acrylamide] | 6.73
C=CC(=O)Nc1ccc2c(ccn2Cc2ccc(OC(F)(F)F)cc2)c1 [Example 7, N-(1-(4-(trifluoromethoxy)benzyl)-1H-indol-5-yl)acrylamide] | ≤ 5.00
C=CC(=O)Nc1ccc2c(ccn2Cc2cccc(S(C)(=O)=O)c2)c1 [Example 59, N-(1-(3-(methylsulfonyl)benzyl)-1H-indol-5-yl)acrylamide] | 5.54
C=CC(=O)Nc1ccc2c(ccn2Cc2ccc([Si](C)(C)C)cc2)c1 [Example 42, N-(1-(4-(trimethylsilyl)benzyl)-1H-indol-5-yl)acrylamide] | 6.68
C=CC(=O)Nc1ccc2c(ccn2Cc2ccc(-c3ccccc3)cc2)c1 [Example 30, N-(1-([1,1′-biphenyl]-4-ylmethyl)-1H-indol-5-yl)acrylamide] | ≤ 5.00

Now from value to compound:

pIC50 | Structure (SMILES)
≤ 5.00 | C=CC(=O)Nc1ccc2c(ccn2CC2CCCCC2)c1 [Example 27, N-(1-(cyclohexylmethyl)-1H-indol-5-yl)acrylamide]
6.00 | C=CC(=O)Nc1ccc2c(ccn2CC2CC3(C2)CC3(F)F)c1 (stereo not drawn) [Example 25, N-(1-((1,1-difluorospiro[2.3]hexan-5-yl)methyl)-1H-indol-5-yl)acrylamide]
6.63 | C=CC(=O)Nc1ccc2c(c1)c(C#N)cn2Cc1cccc(C(F)(F)F)c1 [Example 14, N-(3-cyano-1-(3-(trifluoromethyl)benzyl)-1H-indol-5-yl)acrylamide]
7.54 | C=CC(=O)Nc1ccc2c(ccn2-c2ccc(S(F)(F)(F)(F)F)cc2)c1 [Example 63, N-(1-(4-(pentafluoro-λ6-sulfanyl)phenyl)-1H-indol-5-yl)acrylamide]
6.97 | C=CC(=O)Nc1ccc2ccn(-c3ccc(C(F)(F)F)cc3)c2c1 [Example 64, N-(1-(4-(trifluoromethyl)phenyl)-1H-indol-6-yl)acrylamide]
6.71 | C=CC(=O)Nc1cccc2c1ccn2Cc1cccc(C(F)(F)F)c1 [Example 19, N-(1-(3-(trifluoromethyl)benzyl)-1H-indol-4-yl)acrylamide]
5.96 | C=CC(=O)Nc1ccc2c(ccn2-c2ccnc(C(F)(F)F)c2)c1 [Example 68, N-(1-(2-(trifluoromethyl)pyridin-4-yl)-1H-indol-5-yl)acrylamide]
7.62 | C=CC(=O)Nc1ccc2c(ccn2Cc2cccc(C(F)(F)F)c2)c1 [Example 1, N-(1-(3-(trifluoromethyl)benzyl)-1H-indol-5-yl)acrylamide]
6.80 | C=CC(=O)Nc1ccc2c(c1)c(CO)cn2-c1ccc(C(F)(F)F)cc1 [Example 82, N-(3-(hydroxymethyl)-1-(4-(trifluoromethyl)phenyl)-1H-indol-5-yl)acrylamide]
5.33 | C=CC(=O)Nc1ccc2c(ccn2-c2cccc(S(C)(=O)=O)c2)c1 [Example 50, N-(1-(3-(methylsulfonyl)phenyl)-1H-indol-5-yl)acrylamide]
< 5.00 | C=CC(=O)Nc1ccc2c(ccn2CCOCC(F)(F)F)c1 [Example 37, N-(1-(2-(2,2,2-trifluoroethoxy)ethyl)-1H-indol-5-yl)acrylamide]
7.06 | C=CC(=O)Nc1ccc2c(c1)c(COC)cn2Cc1cccc(C(F)(F)F)c1 [Example 60, N-(3-(methoxymethyl)-1-(3-(trifluoromethyl)benzyl)-1H-indol-5-yl)acrylamide]
5.63 | C=CC(=O)Nc1ccc2c(ccn2CC2CCN(c3ccc(C(F)(F)F)cc3)CC2)c1 [Example 35, N-(1-((1-(4-(trifluoromethyl)phenyl)piperidin-4-yl)methyl)-1H-indol-5-yl)acrylamide]
< 5.00 | C=CC(=O)Nc1ccc2c(ccn2-c2ccc(F)cc2)c1 [Example 48, N-(1-(4-fluorophenyl)-1H-indol-5-yl)acrylamide]
5.70 | C=CC(=O)Nc1cccc2ccn(Cc3cccc(C(F)(F)F)c3)c12 [Example 58, N-(1-(3-(trifluoromethyl)benzyl)-1H-indol-7-yl)acrylamide]
7.08 | C=CC(=O)Nc1ccc2c(ccn2C2CCC(F)(F)CC2)c1 [Example 39, N-(1-(4,4-difluorocyclohexyl)-1H-indol-5-yl)acrylamide]
6.62 | C=CC(=O)Nc1ccc2c(ccn2Cc2cccc(OC)c2)c1 [Example 12, N-(1-(3-methoxybenzyl)-1H-indol-5-yl)acrylamide]
7.92 | C=CC(=O)Nc1ccc2c(c1)cc(C)n2-c1ccc(C(F)(F)F)cc1 [Example 70, N-(2-methyl-1-(4-(trifluoromethyl)phenyl)-1H-indol-5-yl)acrylamide]
6.00 | C=CC(=O)Nc1ccc2c(ccn2CC2CCC(C(F)(F)F)CC2)c1 (stereo not drawn) [Example 24, N-(1-((4-(trifluoromethyl)cyclohexyl)methyl)-1H-indol-5-yl)acrylamide]
7.52 | C=CC(=O)Nc1ccc2c(c1)c(C)cn2Cc1cccc(C(F)(F)F)c1 [Example 11, N-(3-methyl-1-(3-(trifluoromethyl)benzyl)-1H-indol-5-yl)acrylamide]
5.42 | CN(C)C/C=C/C(=O)Nc1ccc2c(ccn2-c2ccc(C(F)(F)F)cc2)c1 [Example 76, (E)-4-(dimethylamino)-N-(1-(4-(trifluoromethyl)phenyl)-1H-indol-5-yl)but-2-enamide]
6.27 | C=CC(=O)Nc1cc2ccn(-c3ccc(C(F)(F)F)cc3)c2cc1Cl [Example 77, N-(6-chloro-1-(4-(trifluoromethyl)phenyl)-1H-indol-5-yl)acrylamide]
≤ 5.00 | C=CC(=O)Nc1ccc2c(ccn2C2CCN(c3ccc(C(F)(F)F)cc3)CC2)c1 [Example 40, N-(1-(1-(4-(trifluoromethyl)phenyl)piperidin-4-yl)-1H-indol-5-yl)acrylamide]
